For experiment [1], the target named is T1, PPO2 R128I ΔG210 in Escherichia coli hemG (Amaranthus tuberculatus, UniProt Q0NZW9, DEL210-210/R128I, cells depend on it).
T1 sequence (Q0NZW9 with tags, fused parts or gaps R128I/DEL210-210): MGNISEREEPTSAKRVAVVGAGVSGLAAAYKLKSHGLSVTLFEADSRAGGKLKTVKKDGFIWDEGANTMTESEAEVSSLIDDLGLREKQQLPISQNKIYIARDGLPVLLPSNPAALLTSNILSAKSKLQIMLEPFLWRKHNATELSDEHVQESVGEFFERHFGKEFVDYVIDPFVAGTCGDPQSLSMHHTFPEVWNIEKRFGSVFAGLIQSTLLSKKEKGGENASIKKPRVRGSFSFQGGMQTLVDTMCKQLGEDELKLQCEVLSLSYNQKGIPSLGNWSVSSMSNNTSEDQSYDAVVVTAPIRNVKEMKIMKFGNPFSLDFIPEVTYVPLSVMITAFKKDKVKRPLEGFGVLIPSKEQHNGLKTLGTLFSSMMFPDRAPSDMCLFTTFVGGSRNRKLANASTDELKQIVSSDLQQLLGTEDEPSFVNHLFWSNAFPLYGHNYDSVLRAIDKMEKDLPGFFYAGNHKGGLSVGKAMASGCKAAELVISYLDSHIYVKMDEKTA
Format: cell-based. To be noted: read-out: IC50 (E. coli hemG growth).

The next experiment concerns the target PPO2 wild-type (Amaranthus tuberculatus, UniProt Q0NZW9). The experiment can be described thus: in vitro inhibition assay, recombinant PPO2 enzyme. Format: biochemical.

Sequence of PPO2 wild-type (Q0NZW9 entry or part of it): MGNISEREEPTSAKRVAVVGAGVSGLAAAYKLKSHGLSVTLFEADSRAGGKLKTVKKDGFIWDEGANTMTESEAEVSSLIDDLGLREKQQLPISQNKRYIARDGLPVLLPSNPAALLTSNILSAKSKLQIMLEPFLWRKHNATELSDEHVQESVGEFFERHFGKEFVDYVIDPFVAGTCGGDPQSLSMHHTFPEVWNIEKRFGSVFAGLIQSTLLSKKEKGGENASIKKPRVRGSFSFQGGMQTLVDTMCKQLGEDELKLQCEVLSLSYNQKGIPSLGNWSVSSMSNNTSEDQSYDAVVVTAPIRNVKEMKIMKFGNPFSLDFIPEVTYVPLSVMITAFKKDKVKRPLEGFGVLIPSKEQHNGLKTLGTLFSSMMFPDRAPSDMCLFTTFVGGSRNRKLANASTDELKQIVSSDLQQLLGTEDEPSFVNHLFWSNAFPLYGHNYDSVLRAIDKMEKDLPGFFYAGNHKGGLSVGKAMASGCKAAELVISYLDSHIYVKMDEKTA

With `CC(C)N(C)S(=O)(=O)NC(=O)c1cc(-n2c(=O)cc(C(F)(F)F)n(C)c2=O)c(F)cc1Cl` [Saflufenacil, saflufenacil], the IC50 in experiment [1] was greater than 10 µM.

Turning to `C#CCN1C(=O)C(F)(F)Oc2cc(F)c(-n3c(=O)n(C)c(=S)n(C)c3=O)cc21` [Trifludimoxazin, trifludimoxazin], the Resistance factor on PPO2 wild-type came out at 1. In experiment [1], the IC50 worked out at 0.0829 µM. For the molecule `CCOC(=O)C(C)OC(=O)c1cc(Oc2ccc(C(F)(F)F)cc2Cl)ccc1[N+](=O)[O-]` (stereo not shown) [Lactofen, lactofen], the IC50 in experiment [1] is greater than 10 µM.

For the origin of these results see paper PMC10092844, “Inhibition profile of trifludimoxazin towards PPO2 target site mutations” (Pest Management Science, 2022).
